Where two headings read alike, the source gives them in different places.
Columns and labels:
Gli-luciferase activity = assay: Reporter gene assay (RGA) in TMHh12 cells, antagonism of Gli-luciferase activity in the presence of a Smo agonist; assay type: cell-based
Experimental: Activity of the compounds was evaluated using a reporter gene assay (RGA) in TMHh12 cells.

[1] = target: mouse Smoothened receptor (Mus musculus, UniProt P56726); assay: Smo binding assay, displacement of radio-labeled smoothened agonist, filter binding format (mouse); details: displacement of small molecule agonist of Smoothened, read-out: Mouse Smo bdg., IC50
Sequence of mouse Smoothened receptor (P56726 33-793): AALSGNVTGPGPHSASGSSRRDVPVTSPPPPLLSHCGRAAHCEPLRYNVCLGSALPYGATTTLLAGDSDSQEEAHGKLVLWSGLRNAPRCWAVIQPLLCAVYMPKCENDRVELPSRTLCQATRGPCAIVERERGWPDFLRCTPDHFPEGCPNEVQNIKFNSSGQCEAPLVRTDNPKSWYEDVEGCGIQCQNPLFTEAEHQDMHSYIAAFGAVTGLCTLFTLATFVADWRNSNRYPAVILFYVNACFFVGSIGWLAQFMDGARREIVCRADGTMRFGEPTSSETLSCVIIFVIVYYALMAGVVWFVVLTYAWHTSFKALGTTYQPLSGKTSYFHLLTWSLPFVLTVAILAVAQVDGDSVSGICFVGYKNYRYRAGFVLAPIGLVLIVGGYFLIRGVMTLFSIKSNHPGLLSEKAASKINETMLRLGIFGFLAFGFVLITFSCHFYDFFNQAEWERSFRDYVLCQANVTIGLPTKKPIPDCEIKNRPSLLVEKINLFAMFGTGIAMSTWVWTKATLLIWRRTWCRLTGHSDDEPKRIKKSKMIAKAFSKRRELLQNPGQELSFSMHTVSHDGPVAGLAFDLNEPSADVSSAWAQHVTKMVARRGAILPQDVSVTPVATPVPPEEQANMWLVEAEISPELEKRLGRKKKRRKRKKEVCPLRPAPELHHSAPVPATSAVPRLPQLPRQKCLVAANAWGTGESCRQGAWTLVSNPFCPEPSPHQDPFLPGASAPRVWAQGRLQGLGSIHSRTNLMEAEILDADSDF
Description: A Smo binding assay was developed using radio-labeled smoothened agonist for compound competition.

[2] = target: human Smoothened receptor (Homo sapiens, UniProt Q99835); assay: Smo binding assay, displacement of radio-labeled smoothened agonist, filter binding format (human); details: displacement of small molecule agonist of Smoothened, read-out: Human Smo bdg., IC50
Sequence of human Smoothened receptor (Q99835 28-787): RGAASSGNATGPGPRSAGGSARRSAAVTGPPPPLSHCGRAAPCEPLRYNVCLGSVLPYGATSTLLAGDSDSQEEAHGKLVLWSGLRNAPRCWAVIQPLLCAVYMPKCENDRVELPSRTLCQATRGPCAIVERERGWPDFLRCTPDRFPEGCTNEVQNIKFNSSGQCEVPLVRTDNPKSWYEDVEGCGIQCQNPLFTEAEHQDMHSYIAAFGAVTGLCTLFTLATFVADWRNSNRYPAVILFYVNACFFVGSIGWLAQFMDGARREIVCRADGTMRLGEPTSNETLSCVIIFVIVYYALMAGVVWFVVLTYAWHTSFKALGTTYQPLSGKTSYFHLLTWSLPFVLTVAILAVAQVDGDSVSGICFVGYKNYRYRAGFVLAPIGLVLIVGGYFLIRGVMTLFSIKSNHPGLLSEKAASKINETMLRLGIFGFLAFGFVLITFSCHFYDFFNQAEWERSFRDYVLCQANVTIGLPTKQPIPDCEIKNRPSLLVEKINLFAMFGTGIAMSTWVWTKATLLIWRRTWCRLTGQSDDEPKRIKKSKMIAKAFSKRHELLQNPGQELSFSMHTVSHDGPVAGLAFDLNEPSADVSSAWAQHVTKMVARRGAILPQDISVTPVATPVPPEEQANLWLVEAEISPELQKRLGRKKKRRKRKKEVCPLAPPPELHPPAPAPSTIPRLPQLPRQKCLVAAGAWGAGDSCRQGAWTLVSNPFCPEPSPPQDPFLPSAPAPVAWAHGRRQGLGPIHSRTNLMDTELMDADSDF
Description: A Smo binding assay was developed using radio-labeled smoothened agonist for compound competition. Table 9 lists the IC50 for displacement of a small molecule agonist of Smoothened determined in a filter binding format for the mouse and human Smoothened receptor.

[3] = 25 nM small molecule Smo agonist, read-out: RGA (25 nM Smo agonist) IC50
[4] = read-out: RGA (1 nM Smo agonist) IC50, 1 nM small molecule Smo agonist

| Compound | IC50 (Gli-luciferase activity; [3]) [µM] | IC50 (Gli-luciferase activity; [4]) [µM] | IC50 [1] [µM] | IC50 [2] [µM] |
| --- | --- | --- | --- | --- |
| CN(C)Cc1ccc(N2CCN(c3nnc(Cc4ccccc4)c4ccccc34)CC2)nc1 [Example 217, {6-[4-(4-Benzyl-phthalazin-1-yl)-piperazin-1-yl]-pyridin-3-ylmethyl}-dimethyl-amine] | 1 to 10 | < 0.1 | 1 to 10 | 1 to 10 |
| CC(C)C(O)c1ccc(N2CCN(c3nnc(Cc4ccccc4)c4ccccc34)CC2)nc1 (centres unmarked) [Example 220] | < 0.1 | < 0.1 | < 0.1 | < 0.1 |
| OC(c1ccc(N2CCN(c3nnc(Cc4ccccc4)c4ccccc34)CC2)nc1)C1CCCC1 (centres unmarked) [Example 221] | 0.1 to 1 | < 0.1 | < 0.1 | < 0.1 |
| c1ccc(Cc2nnc(N3CCN(c4ccc(CN5CCOCC5)cn4)CC3)c3ccccc23)cc1 [Example 222, 1-Benzyl-4-[4-(5-morpholin-4-ylmethyl-pyridin-2-yl)-piperazin-1-yl]-phthalazine] | < 0.1 | < 0.1 | < 0.1 | < 0.1 |
| c1ccc(Cc2nnc(N3CCN(c4ccc(CNC5CCOCC5)cn4)CC3)c3ccccc23)cc1 [Example 225] | 0.1 to 1 | < 0.1 | 0.1 to 1 | 0.1 to 1 |
| CN(Cc1ccc(N2CCN(c3nnc(Cc4ccccc4)c4ccccc34)CC2)nc1)C1CCOCC1 [Example 226] | 0.1 to 1 | < 0.1 | < 0.1 | 0.1 to 1 |
| FC1(F)CCN(Cc2ccc(N3CCN(c4nnc(Cc5ccccc5)c5ccccc45)CC3)nc2)CC1 [Example 228] | 0.1 to 1 | 0.1 to 1 | < 0.1 | < 0.1 |
| FC1(F)CN(Cc2ccc(N3CCN(c4nnc(Cc5ccccc5)c5ccccc45)CC3)nc2)C1 [Example 229] | 0.1 to 1 | 0.1 to 1 | < 0.1 | < 0.1 |
| c1ccc(Cc2nnc(N3CCN(c4ccc(CNC5COC5)cn4)CC3)c3ccccc23)cc1 [Example 230] | 0.1 to 1 | < 0.1 | 0.1 to 1 | 0.1 to 1 |
| CN(C)C(=O)Nc1ccc(N2CCN(c3nnc(Cc4ccccc4)c4ccccc34)CC2)nc1 [Example 238, 3-{6-[4-(4-Benzyl-phthalazin-1-yl)-piperazin-1-yl]-pyridin-3-yl}-1,1-dimethyl-urea] | 0.1 to 1 | < 0.1 | 0.1 to 1 | 0.1 to 1 |
| FC(F)(F)c1ccc(N2CCN(c3nnc(Cc4ccccc4)c4c3C=CCC4)CC2)nc1 [Example 240, 4-Benzyl-1-(4-(5-(trifluoromethyl)pyridin-2-yl)piperazin-1-yl)-5,6-dihydrophthalazine] | 0.1 to 1 | 0.1 to 1 | < 0.1 | < 0.1 |

Next, values leading:

| IC50 (Gli-luciferase activity; [3]) [µM] | IC50 (Gli-luciferase activity; [4]) [µM] | IC50 [1] [µM] | IC50 [2] [µM] | Compound |
| --- | --- | --- | --- | --- |
| 0.1 to 1 | 0.1 to 1 | < 0.1 | < 0.1 | OC(c1ccc(N2CCN(c3nnc(Cc4ccccc4)c4ccccc34)CC2)nc1)C1CC1 (centres unmarked) [Example 219] |
| 0.1 to 1 | < 0.1 | < 0.1 | 0.1 to 1 | OC1CCN(Cc2ccc(N3CCN(c4nnc(Cc5ccccc5)c5ccccc45)CC3)nc2)C1 (centres unmarked) [Example 223] |
| 0.1 to 1 | < 0.1 | < 0.1 | 0.1 to 1 | FC1CCN(Cc2ccc(N3CCN(c4nnc(Cc5ccccc5)c5ccccc45)CC3)nc2)CC1 [Example 227] |
| < 0.1 | < 0.1 | < 0.1 | < 0.1 | c1ccc(Cc2nnc(N3CCN(c4ccc(CN(C5COC5)C5COC5)cn4)CC3)c3ccccc23)cc1 [Example 231] |
| 0.1 to 1 | < 0.1 | < 0.1 | 0.1 to 1 | COC(=O)Nc1ccc(N2CCN(c3nnc(Cc4ccccc4)c4ccccc34)CC2)nc1 [Example 239, {6-[4-(4-Benzyl-phthalazin-1-yl)-piperazin-1-yl]-pyridin-3-yl}-carbamic acid methyl ester] |
| 10 to 40 | 1 to 10 | 1 to 10 | 1 to 10 | Cc1c(Cc2ccccc2)nnc(N2CCN(c3ccc(C(F)(F)F)cn3)CC2)c1CNCc1ccccc1 [Example 241, N-benzyl-1-(6-benzyl-5-methyl-3-(4-(5-(trifluoromethyl)pyridin-2-yl)piperazin-1-yl)pyridazin-4-yl)methanamine] |
| 1 to 10 | 1 to 10 | 1 to 10 | 1 to 10 | Cc1c(N2CCN(c3ccc(C(F)(F)F)cn3)CC2)nnc(Cc2ccccc2)c1CNCc1ccccc1 [Example 242, N-benzyl-1-(3-benzyl-5-methyl-6-(4-(5-(trifluoromethyl)pyridin-2-yl)piperazin-1-yl)pyridazin-4-yl)methanamine] |
| 1 to 10 | 1 to 10 | 0.1 to 1 | 1 to 10 | COc1ccc(CN2Cc3c(Cc4ccccc4)nnc(N4CCN(c5ccc(C(F)(F)F)cn5)CC4)c3C2)cc1 [Example 243, 1-benzyl-6-(4-methoxybenzyl)-4-(4-(5-(trifluoromethyl)pyridin-2-yl)piperazin-1-yl)-6,7-dihydro-5H-pyrrolo[3,4-d]pyridazine] |
| 1 to 10 | 1 to 10 | 0.1 to 1 | 0.1 to 1 | CC(C)n1cc2c(Cc3ccccc3)nnc(N3CCN(c4ccc(C(F)(F)F)cn4)CC3)c2c1 [Example 244, 1-benzyl-6-isopropyl-4-(4-(5-(trifluoromethyl)pyridin-2-yl)piperazin-1-yl)-6H-pyrrolo[3,4-d]pyridazine] |
| 1 to 10 | < 0.1 | 0.1 to 1 | 0.1 to 1 | FC(F)(F)c1ccc(N2CCN(c3nnc(Cc4ccccc4)c4occc34)CC2)nc1 [Example 245, 7-Benzyl-4-[4-(5-trifluoromethyl-pyridin-2-yl)-piperazin-1-yl]-furo[2,3-d]pyridazine] |
| 1 to 10 | < 0.1 | 10 to 40 | 1 to 10 | FC(F)(F)c1ccc(N2CCN(c3nnc(Cc4ccccc4)c4ccoc34)CC2)nc1 [Example 246, 4-Benzyl-7-[4-(5-trifluoromethyl-pyridin-2-yl)-piperazin-1-yl]-furo[2,3-d]pyridazine] |
| 1 to 10 | 1 to 10 | 0.1 to 1 | 0.1 to 1 | FC(F)(F)c1ccc(N2CCN(c3nnc(Cc4ccccc4)c4[nH]cnc34)CC2)nc1 [Example 247, 7-Benzyl-4-[4-(5-trifluoromethyl-pyridin-2-yl)-piperazin-1-yl]-1H-imidazo[4,5-d]pyridazine] |

From patent US8536168B2 (Novartis AG, priority 2007, dated 2013)
